Measurements reported in ChEMBL document CHEMBL1147592, “Novel quinazoline-quinoline alkaloids with cytotoxic and DNA topoisomerase II inhibitory activities” (Bioorg Med Chem Lett, 2004).
In brackets after ≈: the same amount, converted by molar mass.

How the values were obtained:
P388 = assay: Cytotoxic activity against mouse leukemia P-388 cells; type: functional, cell-based
DNA topoisomerase II = DNA topoisomerase II (Homo sapiens, UniProt P11388+Q02880); assay: Inhibitory activity against human DNA topoisomerase II; type: protein assay

| IC50 (DNA topoisomerase II) [µM] | Compound | IC50 (P388) [µg/mL] |
| --- | --- | --- |
| 25 | O=c1c2ccccc2nc2n1C(O)c1cc3ccccc3nc1-2 (stereo not drawn) | 5 (≈ 16.6 µM) |
| 25 | COC1c2cc3ccccc3nc2-c2nc3ccccc3c(=O)n21 (stereo not drawn) | 9 (≈ 28.5 µM) |
| 25 | O=C(c1cnc2ccccc2c1)c1nc(O)c2ccccc2n1 | 20 (≈ 66.4 µM) |
| 25 | CC(=O)NC1c2cc3ccccc3nc2-c2nc3ccccc3c(=O)n21 (stereo not drawn) | 33 (≈ 96.4 µM) |
| 25 | Oc1nc(-c2cnc3ccccc3c2)nc2ccccc12 | 40 (≈ 146 µM) |
| 13.9 | CC(C(C)N1CC(=O)NC(=O)C1)N1CC(=O)NC(=O)C1 (stereo not drawn) [ICRF-193] |  |
| 28.5 | O=c1c2ccccc2nc2n1Cc1cc3ccccc3nc1-2 [LUOTONIN A] | 1.8 (≈ 6.31 µM) |
